Values quoted from earlier work as cited in US9688668B2, “Long chain base sphingosine kinase inhibitors” (UNIVERSITY OF VIRGINIA PATENT FOUNDATION, priority 2012, dated 2017).

Molecular target: sphingosine kinases
Conditions: background statement; read-out: typical KI value; cited from earlier work

Structure (SMILES): CCCCCCCCCCCCCCC[C@H](O)[C@@H](N)CO (racemic) [DL-threo-dihydrosphingosine]
- Ki: < 10 µM
